In ChEMBL document CHEMBL6127089, “Novel non-peptide uracil-derived human gonadotropin-releasing hormone receptor antagonists” (Eur J Med Chem, 2024) one finds EC50 data, which are given here for three molecules.

The target in this assay is T1, Gonadotropin-releasing hormone receptor (Homo sapiens, UniProt P30968).
T1 sequence (P30968 whole entry): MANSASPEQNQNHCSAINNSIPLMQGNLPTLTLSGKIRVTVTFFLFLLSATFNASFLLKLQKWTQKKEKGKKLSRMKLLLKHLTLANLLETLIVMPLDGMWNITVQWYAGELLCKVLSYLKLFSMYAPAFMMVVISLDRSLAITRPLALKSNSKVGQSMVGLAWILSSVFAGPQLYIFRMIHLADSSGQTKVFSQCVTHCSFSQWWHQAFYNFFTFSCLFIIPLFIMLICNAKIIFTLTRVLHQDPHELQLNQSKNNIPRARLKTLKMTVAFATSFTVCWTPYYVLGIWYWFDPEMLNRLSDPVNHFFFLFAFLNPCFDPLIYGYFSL
Description: Antagonist activity at wild type HA-tagged human GnRH1 receptor expressed in HEK293T cells assessed as inhibition of GnRH peptide-stimulated IP1 accumulation by measuring GnRH peptide EC50 at 100 uM pretreated for 1 hr followed by stimulation with GnRH peptide for 1 hr (reference value: 2.5 nM). Format: cell-based.

Take `COc1cccc(-c2c(N[C@@H](CSCCCC(=O)O)c3ccccc3)nc(=O)n(Cc3c(F)cccc3C(F)(F)F)c2C)c1F`: the half-maximal effective concentration (EC50) (in general, the concentration that produces a half-maximal response) was determined as 39 nM.

Regarding `COc1cccc(-c2c(SC[C@H](NCCCC(=O)O)c3ccccc3)nc(=O)n(Cc3c(F)cccc3C(F)(F)F)c2C)c1F`, the EC50 was determined as 110 nM. As to `COc1cccc(-c2c(C)n(Cc3c(F)cccc3C(F)(F)F)c(=O)n(C[C@H](NCCCC(=O)O)c3ccccc3)c2=O)c1F` [ELAGOLIX], the EC50 was 0.6 nM.
